Results published in ChEMBL document CHEMBL4334526, “Synthesis of Peptoid-Based Class I-Selective Histone Deacetylase Inhibitors with Chemosensitizing Properties” (J Med Chem, 2019).
Values belong to the compound of their own block, whether it stands above or below them. Active and inactive are the calls of the source. The rule behind the calls is not given here.

Legend:
[1] = molecular target: T1, Protein deacetylase HDAC6 (Homo sapiens) (UniProt Q9UBN7); test: Inhibition of HDAC6 in human CAL27 cells assessed as acetylation of alpha-tubulin at 5 uM measured after 24 hrs by immunoblot analysis; assay type: cell-based
T1 sequence (whole entry): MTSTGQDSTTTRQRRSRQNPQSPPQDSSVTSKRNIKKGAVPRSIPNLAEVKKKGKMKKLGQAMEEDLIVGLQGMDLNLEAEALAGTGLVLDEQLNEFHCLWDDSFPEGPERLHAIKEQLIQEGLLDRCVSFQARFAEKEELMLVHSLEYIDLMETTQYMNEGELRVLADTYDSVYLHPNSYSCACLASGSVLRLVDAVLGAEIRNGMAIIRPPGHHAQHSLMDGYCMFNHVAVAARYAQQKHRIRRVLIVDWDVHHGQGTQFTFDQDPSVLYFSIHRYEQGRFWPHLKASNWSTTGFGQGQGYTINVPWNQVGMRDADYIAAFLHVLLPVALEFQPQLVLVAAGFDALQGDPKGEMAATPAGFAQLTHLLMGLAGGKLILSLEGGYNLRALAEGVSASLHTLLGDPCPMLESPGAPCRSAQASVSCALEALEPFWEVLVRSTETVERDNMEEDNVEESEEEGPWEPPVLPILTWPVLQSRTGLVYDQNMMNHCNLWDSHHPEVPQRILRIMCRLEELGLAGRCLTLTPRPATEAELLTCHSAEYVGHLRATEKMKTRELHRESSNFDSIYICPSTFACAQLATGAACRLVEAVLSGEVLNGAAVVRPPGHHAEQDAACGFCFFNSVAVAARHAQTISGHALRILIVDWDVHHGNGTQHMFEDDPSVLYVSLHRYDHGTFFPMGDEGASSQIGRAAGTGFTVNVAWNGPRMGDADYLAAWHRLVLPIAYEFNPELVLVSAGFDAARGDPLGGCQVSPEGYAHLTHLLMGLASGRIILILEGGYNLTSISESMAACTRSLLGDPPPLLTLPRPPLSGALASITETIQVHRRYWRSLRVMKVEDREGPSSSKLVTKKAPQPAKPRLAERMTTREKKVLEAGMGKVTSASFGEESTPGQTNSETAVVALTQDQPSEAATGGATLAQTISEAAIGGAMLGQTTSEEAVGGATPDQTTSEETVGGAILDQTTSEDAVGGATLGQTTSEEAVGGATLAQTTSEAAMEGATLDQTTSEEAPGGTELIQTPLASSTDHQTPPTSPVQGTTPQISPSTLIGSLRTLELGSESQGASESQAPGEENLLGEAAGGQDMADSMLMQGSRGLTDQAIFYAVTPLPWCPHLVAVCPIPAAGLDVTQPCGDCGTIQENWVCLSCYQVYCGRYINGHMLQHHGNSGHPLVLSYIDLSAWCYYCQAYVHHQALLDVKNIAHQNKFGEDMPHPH

[2] = molecular target: T2, Class 1 histone deacetylase (Homo sapiens, UniProt Q13547+O15379+Q92769+Q9BY41); conditions: CAL-27
Description: Inhibition of class 1 HDAC in human CAL27 cells assessed as potentiation of cisplatin-induced cytotoxicity by measuring combination index at 0.25 uM in presence of 3.2 uM cisplatin by MTT assay based Chou-Talalay analysis

[3] = molecular target: T2, Class 1 histone deacetylase
Description: Inhibition of class 1 HDAC in human Cal27CisR cells assessed as potentiation of cisplatin-induced cytotoxicity by measuring combination index at 0.25 uM in presence of 3.2 uM cisplatin by MTT assay based Chou-Talalay analysis

[4] = molecular target: T2, Class 1 histone deacetylase; remark: listed apart in the source
Description: Inhibition of class 1 HDAC in human Cal27CisR cells assessed as potentiation of cisplatin-induced cytotoxicity by measuring combination index at 0.10 uM in presence of 10 uM cisplatin by MTT assay based Chou-Talalay analysis

[5] = Induction of apoptosis in human Cal27CisR cells assessed as accumulation at sub-G1 phase at 100 uM measured after 48 hrs by propidium iodide staining based flow cytometry relative to control; assay type: functional
CAL-27 = test: Induction of apoptosis in human CAL27 cells assessed as caspase-3/7 activation at 0.5 uM measured after 48 hrs by CellEvent caspase 3/7 green detection reagent/Hoechst 33342 staining based imaging analysis relative to control; assay type: functional
[6] = molecular target: T2, Class 1 histone deacetylase; remark: listed apart in the source
Description: Inhibition of class 1 HDAC in human Cal27CisR cells assessed as potentiation of cisplatin-induced cytotoxicity by measuring combination index at 0.10 uM in presence of 1 uM cisplatin by MTT assay based Chou-Talalay analysis

[7] = molecular target: T2, Class 1 histone deacetylase; test: Inhibition of class 1 HDAC in human Cal27CisR cells assessed as potentiation of cisplatin-induced cytotoxicity by measuring cisplatin IC50 at […] preincubated for 48 hrs followed by cisplatin addition and measured after 72 hrs by MTT assay (reference value: 63.2 uM); assay type: cell-based
[8] = molecular target: T2, Class 1 histone deacetylase; test: Inhibition of class 1 HDAC in human Cal27CisR cells assessed as increase in histone H3 acetylation at […] measured after 24 hrs by immunoblot analysis; assay type: cell-based

T2 sequence (O15379 whole entry, looked up): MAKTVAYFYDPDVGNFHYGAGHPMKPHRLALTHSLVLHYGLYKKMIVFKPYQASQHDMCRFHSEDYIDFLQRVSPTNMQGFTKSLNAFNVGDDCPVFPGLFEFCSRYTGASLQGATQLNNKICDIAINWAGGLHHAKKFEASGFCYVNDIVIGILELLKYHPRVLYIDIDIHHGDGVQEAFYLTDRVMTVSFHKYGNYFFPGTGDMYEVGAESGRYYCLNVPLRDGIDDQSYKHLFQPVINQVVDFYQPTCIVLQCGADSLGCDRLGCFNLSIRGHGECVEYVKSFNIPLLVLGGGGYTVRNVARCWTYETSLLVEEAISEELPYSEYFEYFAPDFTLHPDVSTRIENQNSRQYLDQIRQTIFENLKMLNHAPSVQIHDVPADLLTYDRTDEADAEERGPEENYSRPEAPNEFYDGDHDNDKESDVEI
T2 sequence (Q13547 whole entry, looked up): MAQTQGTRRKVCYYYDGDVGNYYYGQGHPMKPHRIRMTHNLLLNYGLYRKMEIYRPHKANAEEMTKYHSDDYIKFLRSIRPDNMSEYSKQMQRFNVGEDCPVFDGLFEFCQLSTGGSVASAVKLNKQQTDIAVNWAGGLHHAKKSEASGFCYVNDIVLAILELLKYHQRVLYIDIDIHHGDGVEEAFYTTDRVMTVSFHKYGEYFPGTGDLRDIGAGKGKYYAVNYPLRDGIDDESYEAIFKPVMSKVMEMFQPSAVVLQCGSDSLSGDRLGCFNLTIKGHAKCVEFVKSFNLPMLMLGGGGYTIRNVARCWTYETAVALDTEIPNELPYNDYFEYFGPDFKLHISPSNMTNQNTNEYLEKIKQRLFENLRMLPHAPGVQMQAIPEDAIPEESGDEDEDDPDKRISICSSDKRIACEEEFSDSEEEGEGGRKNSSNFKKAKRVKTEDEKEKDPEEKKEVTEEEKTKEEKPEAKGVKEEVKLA
T2 sequence (Q92769 whole entry, looked up): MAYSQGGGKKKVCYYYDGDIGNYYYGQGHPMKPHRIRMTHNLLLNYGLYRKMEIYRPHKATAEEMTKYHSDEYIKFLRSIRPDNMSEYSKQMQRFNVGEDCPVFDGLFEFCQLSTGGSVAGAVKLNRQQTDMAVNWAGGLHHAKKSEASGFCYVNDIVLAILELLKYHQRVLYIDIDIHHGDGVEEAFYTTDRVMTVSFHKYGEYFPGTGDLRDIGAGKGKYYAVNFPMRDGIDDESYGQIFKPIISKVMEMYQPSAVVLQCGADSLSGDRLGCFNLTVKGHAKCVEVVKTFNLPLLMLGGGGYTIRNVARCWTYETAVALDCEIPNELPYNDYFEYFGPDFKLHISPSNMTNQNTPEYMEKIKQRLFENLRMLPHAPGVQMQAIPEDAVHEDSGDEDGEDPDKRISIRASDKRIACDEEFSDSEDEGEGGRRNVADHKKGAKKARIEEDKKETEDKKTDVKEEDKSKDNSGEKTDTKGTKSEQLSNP
T2 sequence (Q9BY41 whole entry, looked up): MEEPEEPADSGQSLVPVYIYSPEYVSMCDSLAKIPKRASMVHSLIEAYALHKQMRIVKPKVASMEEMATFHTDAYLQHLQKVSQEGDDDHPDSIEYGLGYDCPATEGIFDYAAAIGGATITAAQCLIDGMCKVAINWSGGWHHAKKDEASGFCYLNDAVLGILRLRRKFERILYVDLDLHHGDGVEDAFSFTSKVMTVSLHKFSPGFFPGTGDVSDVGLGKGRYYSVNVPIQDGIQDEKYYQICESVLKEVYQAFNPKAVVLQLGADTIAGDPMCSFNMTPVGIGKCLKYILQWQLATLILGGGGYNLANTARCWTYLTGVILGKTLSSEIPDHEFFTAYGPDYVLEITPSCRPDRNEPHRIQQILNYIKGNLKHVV

inhibition [1]: inactive
Compound: Cc1cc(C)cc(C(=O)N(CCCCCC(=O)Nc2cc(-c3ccccc3)ccc2N)CC(=O)NCc2ccccc2)c1

CI [2]: 0.07
CI [3]: 0.44
CI [4]: < 0.2
CI [6]: < 0.2
Compound: CN(C)c1ccc(C(=O)N(CC(=O)NCc2ccccc2)Cc2ccc(C(=O)Nc3ccccc3N)cc2)cc1
Activity [5]: 32.1%
Activity (CAL-27): 12%

Compound: Cc1cc(C)cc(C(=O)N(CC(=O)NCc2ccccc2)Cc2ccc(C(=O)Nc3cc(-c4ccccc4)ccc3N)cc2)c1
IC50 [7]: 12 µM
inhibition [8]: Active
